Results published in PubChem BioAssay (NCI).
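In this assay, cells in 96-well plates receive the compound at five concentrations for 48 hours. Endpoints are linearly interpolated between the surrounding concentrations. Here, GI50 denotes the concentration required for 50% inhibition of growth. TGI: concentration producing complete growth inhibition.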

Legend:
Assay in all cases: DTP human tumour cell line panel, 48 h
M14 melanoma = test system: M14 melanoma
SW-620 colon = test system: SW-620 colon
SK-MEL-5 melanoma = test system: SK-MEL-5 melanoma
MDA-MB-231 breast = test system: MDA-MB-231 breast
HL-60(TB) leukemia = test system: HL-60(TB) leukemia
NCI-H23 lung = test system: NCI-H23 lung
IGROV1 ovarian = test system: IGROV1 ovarian
K-562 leukemia = test system: K-562 leukemia
KM12 colon = test system: KM12 colon
BT-549 breast = test system: BT-549 breast
PC-3 prostate = test system: PC-3 prostate
RPMI-8226 leukemia = test system: RPMI-8226 leukemia
HCC-2998 colon = test system: HCC-2998 colon
SR leukemia = test system: SR leukemia
A549 NSCLC = test system: A549 NSCLC
UACC-62 melanoma = test system: UACC-62 melanoma
HS 578T breast = test system: HS 578T breast
HOP-62 NSCLC = test system: HOP-62 NSCLC
NCI/ADR-RES ovarian = test system: NCI/ADR-RES ovarian
RXF 393 renal = test system: RXF 393 renal
NCI-H226 lung = test system: NCI-H226 lung
SNB-75 CNS = test system: SNB-75 CNS
COLO 205 colon = test system: COLO 205 colon
HT29 colon = test system: HT29 colon
ACHN renal = test system: ACHN renal
SK-OV-3 ovarian = test system: SK-OV-3 ovarian
SNB-19 CNS = test system: SNB-19 CNS
MOLT-4 leukemia = test system: MOLT-4 leukemia
HCT-15 colon = test system: HCT-15 colon
LOX IMVI melanoma = test system: LOX IMVI melanoma
U251 CNS = test system: U251 CNS
SF-268 CNS = test system: SF-268 CNS
MCF7 breast = test system: MCF7 breast
OVCAR-4 ovarian = test system: OVCAR-4 ovarian
SK-MEL-2 melanoma = test system: SK-MEL-2 melanoma
SF-295 CNS = test system: SF-295 CNS
MDA-MB-435 = test system: MDA-MB-435
CCRF-CEM leukemia = test system: CCRF-CEM leukemia
CAKI-1 renal = test system: CAKI-1 renal
DU-145 prostate = test system: DU-145 prostate
OVCAR-8 ovarian = test system: OVCAR-8 ovarian
TK-10 renal = test system: TK-10 renal
SF-539 CNS = test system: SF-539 CNS
HOP-92 NSCLC = test system: HOP-92 NSCLC
SK-MEL-28 melanoma = test system: SK-MEL-28 melanoma
UACC-257 melanoma = test system: UACC-257 melanoma
A498 renal = test system: A498 renal
MDA-MB-468 breast = test system: MDA-MB-468 breast
786-0 renal = test system: 786-0 renal
OVCAR-5 ovarian = test system: OVCAR-5 ovarian
UO-31 renal = test system: UO-31 renal
MALME-3M melanoma = test system: MALME-3M melanoma
NCI-H460 lung = test system: NCI-H460 lung
EKVX NSCLC = test system: EKVX NSCLC
SN12C renal = test system: SN12C renal
OVCAR-3 ovarian = test system: OVCAR-3 ovarian
NCI-H522 lung = test system: NCI-H522 lung
HCT-116 colon = test system: HCT-116 colon
T-47D breast = test system: T-47D breast

**Q.** What does the source list for `CC1=C(c2cc(-c3ccc(Cl)cc3)c(C#N)c(N)n2)C(c2ccccc2)NC(=S)N1` (configuration not stated)?
**A.** GI50 (M14 melanoma): 3.33 µM; TGI (M14 melanoma): 25.4 µM; GI50 (SW-620 colon): 11 µM; TGI (SW-620 colon): 32.5 µM; GI50 (SK-MEL-5 melanoma): 6.62 µM; TGI (SK-MEL-5 melanoma): 20.1 µM; GI50 (MDA-MB-231 breast): 13.6 µM; TGI (MDA-MB-231 breast): 29.6 µM; GI50 (HL-60(TB) leukemia): 0.168 µM; GI50 (NCI-H23 lung): 13.6 µM; TGI (NCI-H23 lung): 29.6 µM; GI50 (IGROV1 ovarian): 17.2 µM; TGI (IGROV1 ovarian): 36.4 µM; GI50 (K-562 leukemia): 0.277 µM; TGI (K-562 leukemia): > 100 µM; GI50 (KM12 colon): 16.9 µM; TGI (KM12 colon): 35.5 µM; GI50 (BT-549 breast): 14.1 µM; TGI (BT-549 breast): 29.5 µM; GI50 (PC-3 prostate): 11 µM; TGI (PC-3 prostate): 53.1 µM; GI50 (RPMI-8226 leukemia): 0.692 µM; TGI (RPMI-8226 leukemia): 34.1 µM; GI50 (HCC-2998 colon): 13.4 µM; TGI (HCC-2998 colon): 26.4 µM; GI50 (SR leukemia): 0.0842 µM; TGI (SR leukemia): > 48.7 µM; GI50 (A549 NSCLC): 48.8 µM; TGI (A549 NSCLC): > 88 µM; GI50 (UACC-62 melanoma): 13.1 µM; TGI (UACC-62 melanoma): 26.9 µM; GI50 (HS 578T breast): 19.1 µM; TGI (HS 578T breast): > 96.2 µM; GI50 (HOP-62 NSCLC): 16 µM; TGI (HOP-62 NSCLC): 37 µM; GI50 (NCI/ADR-RES ovarian): 0.671 µM; TGI (NCI/ADR-RES ovarian): 26.2 µM; GI50 (RXF 393 renal): 11.6 µM; TGI (RXF 393 renal): 24.3 µM; GI50 (NCI-H226 lung): 15.8 µM; TGI (NCI-H226 lung): 44.6 µM; GI50 (SNB-75 CNS): 7.01 µM; TGI (SNB-75 CNS): 47 µM; GI50 (COLO 205 colon): 17 µM; TGI (COLO 205 colon): 33.5 µM; GI50 (HT29 colon): 12.2 µM; TGI (HT29 colon): 27.6 µM; GI50 (ACHN renal): 15.5 µM; TGI (ACHN renal): 30.9 µM; GI50 (SK-OV-3 ovarian): 23.7 µM; TGI (SK-OV-3 ovarian): 67.9 µM; GI50 (SNB-19 CNS): 16.7 µM; TGI (SNB-19 CNS): 53.8 µM; GI50 (MOLT-4 leukemia): 1.37 µM; TGI (MOLT-4 leukemia): > 66.2 µM; GI50 (HCT-15 colon): 0.171 µM; TGI (HCT-15 colon): 18.2 µM; GI50 (LOX IMVI melanoma): 1.34 µM; TGI (LOX IMVI melanoma): 14.4 µM; GI50 (U251 CNS): 12.5 µM; TGI (U251 CNS): 28.1 µM; GI50 (SF-268 CNS): 17.6 µM; TGI (SF-268 CNS): 67.2 µM; GI50 (MCF7 breast): 0.177 µM; TGI (MCF7 breast): 28.5 µM; GI50 (OVCAR-4 ovarian): 28 µM; TGI (OVCAR-4 ovarian): > 100 µM; GI50 (SK-MEL-2 melanoma): 17.5 µM; TGI (SK-MEL-2 melanoma): 34.2 µM; GI50 (SF-295 CNS): 10.8 µM; TGI (SF-295 CNS): 24.4 µM; GI50 (MDA-MB-435): 7.44 µM; TGI (MDA-MB-435): 30.3 µM; GI50 (CCRF-CEM leukemia): 0.303 µM; TGI (CCRF-CEM leukemia): 16.9 µM; GI50 (CAKI-1 renal): 16.5 µM; TGI (CAKI-1 renal): 43.9 µM; GI50 (DU-145 prostate): 13.1 µM; TGI (DU-145 prostate): 29.3 µM; GI50 (OVCAR-8 ovarian): 20 µM; TGI (OVCAR-8 ovarian): > 86.4 µM; GI50 (TK-10 renal): 23.1 µM; TGI (TK-10 renal): 61 µM; GI50 (SF-539 CNS): 10.1 µM; TGI (SF-539 CNS): 23 µM; GI50 (HOP-92 NSCLC): 19.1 µM; TGI (HOP-92 NSCLC): 62.7 µM; GI50 (SK-MEL-28 melanoma): 14.9 µM; TGI (SK-MEL-28 melanoma): 30 µM; GI50 (UACC-257 melanoma): 16.1 µM; TGI (UACC-257 melanoma): 38.8 µM; GI50 (A498 renal): > 44.5 µM; TGI (A498 renal): > 62.8 µM; GI50 (MDA-MB-468 breast): 8.45 µM; TGI (MDA-MB-468 breast): 22.7 µM; GI50 (786-0 renal): 16.3 µM; TGI (786-0 renal): 35.4 µM; GI50 (OVCAR-5 ovarian): 17.8 µM; TGI (OVCAR-5 ovarian): 35.5 µM; GI50 (UO-31 renal): 13.3 µM; TGI (UO-31 renal): 26.3 µM; GI50 (MALME-3M melanoma): 14 µM; TGI (MALME-3M melanoma): 32.1 µM; GI50 (NCI-H460 lung): 20.3 µM; TGI (NCI-H460 lung): 53.8 µM; GI50 (EKVX NSCLC): 16.4 µM; TGI (EKVX NSCLC): 42.6 µM; GI50 (SN12C renal): 5.86 µM; TGI (SN12C renal): 21.6 µM; GI50 (OVCAR-3 ovarian): 13.8 µM; TGI (OVCAR-3 ovarian): 47.4 µM; GI50 (NCI-H522 lung): 14.7 µM; TGI (NCI-H522 lung): 29.5 µM; GI50 (HCT-116 colon): 0.147 µM; TGI (HCT-116 colon): 17.6 µM; GI50 (T-47D breast): 11.4 µM; TGI (T-47D breast): 47.5 µM
